Test results: US20230341377A1, “DISCONNECTION AGENTS” (DC Europa Limited, priority 2020, published 2023)

Columns and labels:
[1] = biological target: T1, PKCε (Homo sapiens, UniProt Q02156); set-up: key: +—activation; ++—strong activation; conditions: nPKCs, gene PRKCE; cited from earlier work
T1 sequence (Q02156 1-737): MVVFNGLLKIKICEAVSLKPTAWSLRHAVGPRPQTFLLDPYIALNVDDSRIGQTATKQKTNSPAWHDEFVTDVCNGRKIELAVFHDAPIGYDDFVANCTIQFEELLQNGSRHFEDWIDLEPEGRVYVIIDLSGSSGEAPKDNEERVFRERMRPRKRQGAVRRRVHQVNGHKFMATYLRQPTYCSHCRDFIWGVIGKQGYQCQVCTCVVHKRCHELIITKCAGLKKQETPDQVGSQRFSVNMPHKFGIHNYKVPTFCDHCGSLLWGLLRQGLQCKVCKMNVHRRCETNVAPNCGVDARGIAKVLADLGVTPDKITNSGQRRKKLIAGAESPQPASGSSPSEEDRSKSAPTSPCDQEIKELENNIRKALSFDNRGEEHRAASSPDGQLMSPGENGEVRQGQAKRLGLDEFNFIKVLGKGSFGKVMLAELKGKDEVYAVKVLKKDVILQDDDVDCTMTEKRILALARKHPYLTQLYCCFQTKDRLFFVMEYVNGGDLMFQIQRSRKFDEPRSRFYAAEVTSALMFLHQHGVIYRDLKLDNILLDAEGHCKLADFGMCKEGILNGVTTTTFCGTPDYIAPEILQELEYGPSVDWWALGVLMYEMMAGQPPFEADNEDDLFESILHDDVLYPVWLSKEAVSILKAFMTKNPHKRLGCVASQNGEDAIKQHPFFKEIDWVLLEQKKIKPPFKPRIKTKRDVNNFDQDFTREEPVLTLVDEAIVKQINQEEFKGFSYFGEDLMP

[2] = biological target: PKCα (Homo sapiens, UniProt P17252); set-up: key: +—activation; ++—strong activation; conditions: cPKCs, gene PRKCA; cited from earlier work
[3] = system: PKCβI/PKCβII; set-up: key: +—activation; ++—strong activation; conditions: cited from earlier work; for activation of PKCβI/PKCβII: cPKCs, gene PRKCB
[4] = biological target: PKCη (Homo sapiens, UniProt P24723); set-up: key: +—activation; ++—strong activation; conditions: nPKCs, gene PRKCH; cited from earlier work
Chain of PKCη (P24723 whole entry): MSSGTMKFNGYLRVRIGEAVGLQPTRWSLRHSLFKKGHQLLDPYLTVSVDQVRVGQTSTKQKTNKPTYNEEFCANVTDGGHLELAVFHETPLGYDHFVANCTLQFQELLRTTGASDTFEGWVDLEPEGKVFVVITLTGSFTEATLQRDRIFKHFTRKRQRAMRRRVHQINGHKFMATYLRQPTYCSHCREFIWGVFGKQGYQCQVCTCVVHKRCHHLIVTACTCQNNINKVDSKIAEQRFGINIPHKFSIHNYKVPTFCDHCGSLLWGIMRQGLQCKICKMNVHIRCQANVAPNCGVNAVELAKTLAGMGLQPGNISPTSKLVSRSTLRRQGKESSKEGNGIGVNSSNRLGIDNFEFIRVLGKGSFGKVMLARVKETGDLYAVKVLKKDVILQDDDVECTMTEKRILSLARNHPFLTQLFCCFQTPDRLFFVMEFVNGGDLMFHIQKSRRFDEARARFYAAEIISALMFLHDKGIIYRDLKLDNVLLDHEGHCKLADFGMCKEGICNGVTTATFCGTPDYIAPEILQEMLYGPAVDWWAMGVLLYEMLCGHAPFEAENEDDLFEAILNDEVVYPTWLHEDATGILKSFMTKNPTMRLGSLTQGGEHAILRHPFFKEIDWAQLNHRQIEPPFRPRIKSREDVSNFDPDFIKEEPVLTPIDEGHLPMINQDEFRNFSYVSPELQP

[5] = biological target: PKCγ (Homo sapiens, UniProt P05129); set-up: key: +—activation; ++—strong activation; conditions: cPKCs, gene PRKCG; cited from earlier work
[6] = system: Hs578T cells; assay: SMS assay in Hs578T cells; assay type: cell-based, human; conditions: versus vehicle and PMA (5 nM), FIG. 2A, 2B, 2D, 2E
Excerpt: (§1) The SMS assay was developed to assess the transfer of cell dye (for example the acetoxymethyl [AM]-based Calcein AM), between cancer cells. The SMS assay can be applied to any cell lines forming tumour networks such as tumour microtubes (TM) or tunneling nanotubes (TNT), which enable the transfer of molecules across cells. The SMS assay can be used to assess networking capabilities of any cancer cell lines including HepG2 hepatocellular carcinoma cells, Hs578T cell line for human breast cancer, and U373 cell line for human glioblastoma.
(§2) The SMS assay is illustrated in FIG. 1. For the SMS assay, two sets of cells are stained with the cell dye of choice and a customary cell tracker dye (for example cell tracker blue) using established staining techniques (steps 1 and 2). Each set of cells are then co-incubated with the compound of interest to assess its capabilities to modulate the cells small molecule sharing characteristics (step 3). Then the two sets of cells are combined on a plate, for example at a ratio of 1:1, and cultured in the presence of the compound of interest (Step 4).
(§3) Finally, live cells are evaluated for viability and analyzed by flow cytometry for the uptake of cell dye in the […] cells (Step 5). The comparison of cell tracker uptake against positive and negative control enables the assessment of the compound's ability to modulate the tumour networks including those formed by TM and TNTs
(§4) The SMS assay has been applied to assess the modulation of network sharing capabilities of Protein Kinase C Modulators (PKCm) at various concentrations in the Hs578 cell line for human breast cancer, U373 cell line of human glioblastoma, and HepG2 hepatocellular carcinoma cells. PBS vehicle was used as negative control and the PKCm PHORBOL 12-MYRISTATE 13-ACETATE (PMA) at a concentration of 5 nM was used as the positive control.
(§5) FIG. 2A and FIG. 2B show the percentage of cell tracker cells that were accepting the cell dye transfer from separately stained donor cells according to the SMS assay of Example. The percentage of acceptor cells detected is shown in comparison to vehicle (upper horizontal line) and PMA at 5-10 nM concentration (lower horizontal line). Active PKCm in the SMS assay (FIG. 2A) show a decrease in acceptor cells relative to vehicle at certain concentration. […] The upper limit of the tested concentrations was determined as the maximal non-cytotoxic dose.

[7] = system: Hs578 cell line for human breast cancer, U373 cell line of human glioblastoma, and HepG2 hepatocellular carcinoma cells; assay: SMS assay (small molecule sharing), cell dye-sharing between cancer cells, cell lines pooled; assay type: cell-based; conditions: for inhibition of cell dye-sharing in the SMS assay: various doses that are not cytotoxic, in one or more cell lines; for effect on cell dye-sharing in the SMS assay: concentration range of 0.1 to 30 μM
Excerpt: as §1, §2, §3, §4, §5

[8] = biological target: PKCδ (Homo sapiens, UniProt Q05655); set-up: key: +—activation; ++—strong activation; conditions: nPKCs, gene PRKCD; cited from earlier work
Chain of PKCδ (Q05655 whole entry): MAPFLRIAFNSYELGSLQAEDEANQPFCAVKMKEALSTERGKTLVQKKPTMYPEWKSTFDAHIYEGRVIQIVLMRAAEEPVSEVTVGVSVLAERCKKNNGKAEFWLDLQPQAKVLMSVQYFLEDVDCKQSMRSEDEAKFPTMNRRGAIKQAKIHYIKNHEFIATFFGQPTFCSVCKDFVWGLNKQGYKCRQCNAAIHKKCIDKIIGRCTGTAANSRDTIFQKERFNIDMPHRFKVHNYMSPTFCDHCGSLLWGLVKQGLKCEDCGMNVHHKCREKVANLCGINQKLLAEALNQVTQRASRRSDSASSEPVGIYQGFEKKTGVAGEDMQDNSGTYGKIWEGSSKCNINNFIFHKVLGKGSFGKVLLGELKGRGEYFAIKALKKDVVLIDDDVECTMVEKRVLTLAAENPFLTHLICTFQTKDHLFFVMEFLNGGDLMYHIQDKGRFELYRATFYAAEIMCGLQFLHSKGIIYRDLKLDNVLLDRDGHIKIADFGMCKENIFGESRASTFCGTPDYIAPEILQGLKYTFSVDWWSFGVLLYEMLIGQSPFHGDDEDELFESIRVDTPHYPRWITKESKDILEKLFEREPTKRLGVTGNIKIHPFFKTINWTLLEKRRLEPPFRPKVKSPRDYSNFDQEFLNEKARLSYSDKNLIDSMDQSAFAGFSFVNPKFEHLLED

[9] = system: U373 cells; assay: SMS assay in U373 cells; assay type: cell-based, human; conditions: versus vehicle and PMA (10 nM), FIG. 2C
Excerpt: as §1
(§6) The SMS assay is illustrated in FIG. 1. For the SMS assay, two sets of cells are stained with the cell dye of choice and a customary cell tracker dye (for example cell tracker blue) using established staining techniques (steps 1 and 2). […]
(§7) Finally, live cells are evaluated for viability and analyzed by flow cytometry for the uptake of cell dye in the flow tracker-stained cells (Step 5). […]
(§8) FIG. 2A and FIG. 2B show the percentage of cell tracker cells that were accepting the cell dye transfer from separately stained donor cells according to the SMS assay of Example. The percentage of acceptor cells detected is shown in comparison to vehicle (upper horizontal line) and PMA at 5-10 nM concentration (lower horizontal line). […] The upper limit of the tested concentrations was determined as the maximal non-cytotoxic dose.

[10] = biological target: PKCθ (Homo sapiens, UniProt Q04759); set-up: key: +—activation; ++—strong activation; conditions: nPKCs, gene PRKCQ; cited from earlier work
Chain of PKCθ (Q04759 whole entry): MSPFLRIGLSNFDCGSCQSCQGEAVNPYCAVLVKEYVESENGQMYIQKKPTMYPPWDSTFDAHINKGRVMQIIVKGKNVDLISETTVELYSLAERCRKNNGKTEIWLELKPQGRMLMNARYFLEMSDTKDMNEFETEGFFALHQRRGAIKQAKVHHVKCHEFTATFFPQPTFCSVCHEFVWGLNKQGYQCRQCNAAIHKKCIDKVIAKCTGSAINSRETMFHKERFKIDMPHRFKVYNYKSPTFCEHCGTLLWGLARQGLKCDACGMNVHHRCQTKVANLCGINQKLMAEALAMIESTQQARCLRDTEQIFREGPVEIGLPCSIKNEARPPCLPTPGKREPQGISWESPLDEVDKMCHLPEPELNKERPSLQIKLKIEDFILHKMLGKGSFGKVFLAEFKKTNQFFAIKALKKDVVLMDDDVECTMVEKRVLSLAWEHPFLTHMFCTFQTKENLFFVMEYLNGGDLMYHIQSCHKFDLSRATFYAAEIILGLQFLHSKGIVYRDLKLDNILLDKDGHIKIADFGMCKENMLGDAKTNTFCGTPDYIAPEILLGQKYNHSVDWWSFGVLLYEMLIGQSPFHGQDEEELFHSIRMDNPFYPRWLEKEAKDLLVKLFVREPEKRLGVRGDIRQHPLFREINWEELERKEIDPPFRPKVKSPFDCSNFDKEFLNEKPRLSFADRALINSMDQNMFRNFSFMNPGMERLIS

[11] = system: HepG2 cells; assay: SMS assay in HepG2 cells; assay type: cell-based, human; conditions: versus vehicle and PMA (10 nM), FIG. 2C
Excerpt: as §1, §6, §7, §8

Compound | activation of PKCε [1] | activation of PKCα [2] | activation of PKCβI/PKCβII [3] | activation of PKCγ [5] | cell dye-sharing in the SMS assay (percentage of acceptor cells) [6] | inhibition of cell dye-sharing in the SMS assay [7] | activation of PKCδ [8] | effect on cell dye-sharing in the SMS assay [7] | also measured
CC(C)[C@H]1C(=O)N[C@H](CO)Cc2c[nH]c3cccc(c23)N1C [Indolactam V] | + | + | ++ | + | inhibition of cell dye-sharing | marked inhibition of cell dye-sharing | ++ | – | activation of PKCη [4]: +
CCCCCC1CC1CC1CC1CCCCCCCC(=O)O (centres unmarked) [FR236924] | – | – | – | – | not interfering with cell dye-sharing | – | – | did not have any effect | –
Bryostatin 2 | – | – | – | – | – | marked inhibition of cell dye-sharing | – | – | cell dye-sharing in the SMS assay (percentage of acceptor cells) [9]: inhibition of cell dye-sharing
CCCCCCCCCCNc1cc(CO)c2cc[nH]c2c1 [6-(N-Decylamino)-4-Hydroxymethylindole] | – | – | – | – | not interfering with cell dye-sharing | – | – | did not have any effect | –
O=S(=O)(NCCCCCCc1ccccc1)c1cccc2c(Cl)cccc12 [SC-9] | – | – | – | – | not interfering with cell dye-sharing | – | – | did not have any effect | –
C/C=C(/C)C(=O)O[C@H]1C(C)=C[C@]23C(=O)[C@@H](C=C(CO)[C@@H](O)[C@]12O)[C@H]1[C@@H](C[C@H]3C)C1(C)C [Ingenol-3-angelate] | + | + | + | + | – | – | + | did not have any effect | disconnection of tumour cell types in the assay for disconnection ([7]; several different tumour cell types): does not disconnect
CCCCCCCCCCCCCC(=O)O[C@@H]1[C@@H](C)[C@@]2(O)[C@@H](C=C(CO)C[C@]3(O)C(=O)C(C)=C[C@@H]23)[C@@H]2C(C)(C)[C@]12OC(C)=O [PMA, 12-O-tetradecanoyl-phorbol-13-acetate] | + | + | + | + | inhibition of cell dye-sharing | marked inhibition of cell dye-sharing | + | – | activation of PKCη [4]: +; activation of PKCθ [10]: +
CCC/C=C/C=C/C(=O)O[C@H]1/C(=C/C(=O)OC)C[C@H]2C[C@H]([C@@H](C)O)OC(=O)C[C@H](O)C[C@@H]3C[C@H](OC(C)=O)C(C)(C)[C@](O)(C[C@@H]4C/C(=C/C(=O)OC)C[C@H](/C=C/C(C)(C)[C@]1(O)O2)O4)O3 [Bryostatin 1] | + | + | – | – | – | marked inhibition of cell dye-sharing | – | – | cell dye-sharing in the SMS assay (percentage of acceptor cells) [11]: inhibition of cell dye-sharing; activation of PKCβI ([3]; βI only, activation and translocation in transfected CHO cells (Wender 2011)): + (βI)
CCC/C=C/C=C/C(=O)O[C@H]1/C(=C/C(=O)OC)C[C@H]2C[C@H]([C@@H](C)O)OC(=O)C[C@H](O)C[C@@H]3C[C@H](OC(C)=O)C(C)(C)[C@](O)(C[C@@H]4C/C(=C/C(=O)OC)C[C@H](/C=C/C(C)(C)[C@]1(O)O2)O4)O3 [bryostatin] | – | – | – | – | inhibition of cell dye-sharing | – | – | – | –
